≈ marks a conversion by molar mass, not a printed value. Counter-ions that a name gives are not always drawn. Like-named read-outs stand apart in the source and are kept apart here. A value given as a limit tells only on which side of the number the result lay.

Series [1] has as its system Trichomonas vaginalis strain TVL. Description: Activity against Trichomonas vaginalis, two-fold tube dilution method. It counts as cell-based. The protocol: Trichomonas vaginalis (applicant's internal code TVL) was grown on Trichomonas Culture Medium Base (Merck) plus 10% heat treated horse serum. Inoculum: approximately 10^5 organisms/ml. Incubation: 48 hours at 37° C.

The test system of series [2] is Gardnerella vaginalis ATCC 14018 and other 11 clinical isolates. Description: Activity against Gardnerella vaginalis, standard two fold dilution methods. To be noted: for Number of strains with MIC of 8 mcg/ml: MIC 8 mcg/ml; for Number of strains with MIC of 32 mcg/ml: MIC 32 mcg/ml.
Protocol: The strains were grown on Casman medium (Difco) plus 5% (v/v) whole rabbit blood and 0.15 (v/v) lysed rabbit blood. Inoculum size: approximately 10^4 colony forming units per spot. Incubation in an anaerobic hood: 48 hours at 37° C.
In series [3] the test system is Gardnerella vaginalis. Description: In vitro activity, M.I.C., agar dilution. It is filed as cell-based. To be noted: salts calculated as weight of purpuromycin; ATCC 14018 and 10 clinical isolates, all same M.I.C.; inoculum ca. 10^5 CFU, 48 h. The protocol: **The assay was carried out on strain ATCC 14018 and 10 clinical isolates
Incubation was for 48 h in an anaerobic hood (37° C.); inoculum ca. 10^5 CFU.

Series [4] is described as follows: Solubility and pH of solution. It is filed as physicochemical.
Series [5] has as its system Staph. haemolyticus L602. Description: In vitro activity, M.I.C., microbroth dilution. It counts as cell-based. The conditions noted are these: salts calculated as weight of purpuromycin; 37° C., 20 h. Here is the method: (§1) MIC were determined by the microbroth dilution test. Bacteria were grown at 37° C., fungi at 30° C. Incubation was for 20 h, except for Propionibacterium acnes, Bacteroides fragilis, Neisseria gonorrhoeae, Haemophilus influenzae (48 h) and Trichophyton mentagrophytes (72h) Neisseria gonorrhoeae and Haemophilus influenzae were incubated in a CO2 -enriched (5%) atmosphere; Propionibacterium acnes and Bacteroides fragilis in an anaerobic hood. Media used were: Oxoid Iso-sensitest broth (Staphylococci, Enterococcus faecalis and Escherichia coli); Difco Todd-Hewitt broth (streptococci); Difco GC base broth with 1% BBL IsoVitaleX (Neisseria gonorrhoeae); Difco Brain-Heart Infusion broth with 1% Difco supplement C (Haemophilus influenzae); Difco Wilkins-Chalgren broth (Propionibacterium acnes and Bacteroides fragilis); Difco Yeast Nitrogen Base broth with 1.5 g/1 asparagine (Candida albicans); Difco Sabouraud-dextrose broth (Trichophyton mentagrophytes). Inocula were approximately 10^4 CFU/ml.

Series [6] concerns Candida albicans SKF 2270. In words: In vitro activity, M.I.C., microbroth dilution. It counts as cell-based. The conditions noted are these: salts calculated as weight of purpuromycin; 30° C., 20 h. The protocol: as §1
The test system of series [7] is Enterococcus faecalis ATCC 7080. In words: In vitro activity, M.I.C., microbroth dilution. It counts as cell-based. To be noted: salts calculated as weight of purpuromycin; 37° C., 20 h. Here is the method:
as §1

Series [8] deals with Trichophyton mentagrophytes SKF 17410. Description: In vitro activity, M.I.C., microbroth dilution. It counts as cell-based. To be noted: salts calculated as weight of purpuromycin; 30° C., 72 h. The protocol: as §1
Series [9] deals with Escherichia coli SKF 12140. Description: In vitro activity, M.I.C., microbroth dilution. It counts as cell-based. The conditions noted are these: salts calculated as weight of purpuromycin; 37° C., 20 h. The protocol:
as §1

Series [10] has as its system Staph. epidermidis ATCC 12228. In words: In vitro activity, M.I.C., microbroth dilution. To be noted: salts calculated as weight of purpuromycin; 37° C., 20 h. It counts as cell-based. The protocol: as §1
Series [11] deals with Haemophilus influenzae ATCC 19418. Description: In vitro activity, M.I.C., microbroth dilution. It counts as cell-based. The conditions noted are these: salts calculated as weight of purpuromycin; 37° C., 48 h, 5% CO2. Here is the method: as §1
In series [12] the test system is Bacteroides fragilis ATCC 23745. In words: In vitro activity, M.I.C., microbroth dilution. It is filed as cell-based. To be noted: salts calculated as weight of purpuromycin; 37° C., 48 h, anaerobic hood. The protocol:
as §1

Series [13] relates to Propionibacterium acnes ATCC 6919. Description: In vitro activity, M.I.C., microbroth dilution. It counts as cell-based. To be noted: salts calculated as weight of purpuromycin; 37° C., 48 h, anaerobic hood. The protocol: as §1
Series [14] deals with Staph. aureus Tour L 165. In words: In vitro activity, M.I.C., microbroth dilution. It is filed as cell-based. The conditions noted are these: salts calculated as weight of purpuromycin; 37° C., 20 h. Here is the method: as §1
In series [15] the test system is Neisseria gonorrhoeae L 997. In words: In vitro activity, M.I.C., microbroth dilution. It is filed as cell-based. The conditions noted are these: salts calculated as weight of purpuromycin; 37° C., 48 h, 5% CO2. The protocol: as §1
Series [16] relates to Strep. pneumoniae L44. In words: In vitro activity, M.I.C., microbroth dilution. It counts as cell-based. The conditions noted are these: salts calculated as weight of purpuromycin; 37° C., 20 h. The protocol: as §1
Series [17] deals with Strep. pyogenes L49. In words: In vitro activity, M.I.C., microbroth dilution. It is filed as cell-based. To be noted: salts calculated as weight of purpuromycin; 37° C., 20 h. Here is the method: as §1
Series [18] has as its system Trichomonas vaginalis TVL. Description: In vitro activity, M.I.C., microtiter trays. It is filed as cell-based. To be noted: salts calculated as weight of purpuromycin; 48 h, anaerobic hood, 37° C. Here is the method:
MIC were performed in flat-bottomed microtiter trays, with 0.2 ml per well. The medium was TYM modified basal medium (Merck) plus 10% horse serum (treated to inactivate complement). The inoculum was ca. 10^5 organisms/ml; incubation was for 48 h in an anaerobic hood (37° C.).The microtiter wells were read using an inverted light microscope. The MIC was taken as the lowest concentration at which no live (mobile) protozoa were seen.

The subject of series [19] is Candida albicans SKF 2270. In words: Activity against Candida strains, two-fold dilution method. To be noted: for MIC: Candida albicans, SKF2270, 20 h. It is filed as cell-based. Here is the method:
(§2) This set of experiments included also one strain each of two other Candida species, Candida tropicalis and Candida kruzei. The M.I.C. were determined by the two-fold dilution method in buffered (0.01 M phosphate buffer, pH 7.4) yeast nitrogen base medium (Difco) supplemented with 1.5 g/liter asparagine in microtiter trays. Inocula were approximately 10^4 colony forming units/ml. Incubation was for 20 h at 30° C. Purpuromycin was dissolved in DMSO and added to the cultures as above.

Series [20] relates to Candida albicans ATCC 10231. The description is as above. It is filed as cell-based. To be noted: for MIC: Candida albicans, ATCC10231, 20 h. Here is the method:
as §2

Setting [21] is: MIC >128 mcg/ml, 12 strains tested.
[22] abbreviates: comparative tests, antibacterial agents, read-out: M.I.C.
The mark [23] stands for this setting: comparative tests, antibacterial agents.

Turning to `C[C@@H]1[C@H](O)[C@@H](C)/C=C/C=C/C=C/C=C/C=C/C=C/C=C/[C@H](O[C@@H]2O[C@H](C)[C@@H](O)[C@H](N)[C@@H]2O)C[C@@H]2O[C@](O)(C[C@@H](O)C[C@@H](O)[C@H](O)CC[C@@H](O)C[C@@H](O)CC(=O)O[C@H]1C)C[C@H](O)[C@H]2C(=O)O` [Amphotericin B], the MIC in series [1] (Trichomonas vaginalis, 48 h) stood at 64 µg/mL (≈ 69.3 µM).
Take `Clc1ccccc1C(c1ccccc1)(c1ccccc1)n1ccnc1` [Clotrimazole]: in series [1] (Trichomonas vaginalis, 48 h), the MIC turned out to be 64 µg/mL (≈ 186 µM). For the same compound, in [2] (12 strains tested), the “Number of strains with MIC of 8 mcg/ml” value amounted to 2 strains and the “Number of strains with MIC of 32 mcg/ml” value is recorded as 2 strains. Also, in [2] (MIC 16 mcg/ml, 12 strains tested), the “Number of strains with MIC of 16 mcg/ml” value is 1 strains. In series [2] (setting [21]), the “Number of strains with MIC of >128 mcg/ml” value (from here on “Number … of >128 mcg/ml”) is on record as 2 strains.
For `CC(=O)N1CCN(c2ccc(OCC3COC(Cn4ccnc4)(c4ccc(Cl)cc4Cl)O3)cc2)CC1` (stereo not drawn) [Ketoconazole], the MIC in [1] (Trichomonas vaginalis, 48 hours at 37° C., read-out: MIC) is over 128 µg/mL.
As to `Clc1ccc(COC(Cn2ccnc2)c2ccc(Cl)cc2Cl)c(Cl)c1` (stereo not drawn) [Miconazole], in series [1] (Trichomonas vaginalis, 48 h), the MIC was 32 µg/mL (≈ 76.9 µM). In addition, the MIC in series [2] (Gardnerella vaginalis, read-out: MIC on resistant strains) was over 128 µg/mL. For the same compound, in [2] (MIC 4 mcg/ml, 12 strains tested), the “Number of strains with MIC of 4 mcg/ml” value worked out at 1 strains. Further, in series [2] (12 strains tested), the “Number of strains with MIC of 8 mcg/ml” value is reported as 7 strains and the “Number of strains with MIC of 32 mcg/ml” value was 2 strains. Moreover, the “Number … of >128 mcg/ml” value in [2] (setting [21]) was found to be 2 strains.
Consider `C[C@@H]1[C@H](O)[C@@H](C)/C=C/C=C/CC/C=C/C=C/C=C/C=C/C(O[C@H]2O[C@H](C)[C@@H](O)[C@H](N)[C@@H]2O)CC2O[C@](O)(CC(O)C(O)CCC(O)CC(O)CC(O)CC(=O)O[C@H]1C)CC(O)C2C(=O)O` (stereo partly drawn) [Nystatin], for which the MIC in [1] (48 hours at 37° C.) was over 128 µg/mL. Moreover, the “Number … of >128 mcg/ml” value in series [2] is 12 strains. Besides, in series [2] (strains resistant to the named drug), the “MIC on resistant strains” value was over 128 micrograms/ml.
Turning to `COC(=O)c1cc2cc3c(c(O)c2c(=O)o1)OC1(Cc2c(O)c4c(c(O)c2O1)C(=O)C(OC)=CC4=O)CC3O` (stereo not drawn) [Purpuromycin salt with TRIS (1:1.5), Salt of purpuromycin with tris-(hydroxymethyl) aminomethane], the M.I.C. is 16 mg/L in [3]; 0.06 mg/L in series [5]; 1 mg/L in series [6]; 0.06 mg/L in [7]; 1 mg/L in series [8]; 16 mg/L in series [9]. The M.I.C. in series [10] is 0.06 mg/L; in series [11] it was 0.06 mg/L; in series [12] it was 0.13 mg/L; in series [13] it was 0.06 mg/L; in series [14], 0.06 mg/L; in [15], 0.06 mg/L. For the same compound, the values for the M.I.C. in [16], in series [17] and in series [18] were 0.13 mg/L, 0.06 mg/L and 4 mg/L, respectively. Also, the “pH value of the solution” value in series [4] (solution at 4.5 mg/ml in distilled water) worked out at 8.8. Also, the solubility (commonly how much of the substance goes into solution per volume) in series [4] (water, room temperature, calculated as purpuromycin, read-out: solubility in distilled water) was 4500 µg/mL.
For the compound `CC1(C)S[C@@H]2[C@H](NC(=O)[C@H](N)c3ccccc3)C(=O)N2[C@H]1C(=O)O` [ampicillin], the MIC in series [19] (setting [22]) and in [20] (setting [22]) was over 128 µg/mL throughout.
For the compound `CC1=C(C(=O)O)N2C(=O)[C@@H](NC(=O)[C@H](N)c3ccccc3)[C@H]2SC1` [cefalexin], the MIC in series [19] (setting [22]) and in series [20] (setting [22]) was over 128 µg/mL throughout.
In the case of `CO[C@@]1(NC(=O)Cc2cccs2)C(=O)N2C(C(=O)O)=C(COC(N)=O)CS[C@@H]21` [cefoxitin], the MIC in series [19] (setting [22]) and in [20] (setting [22]) was over 128 µg/mL throughout.
As to `O=C(Cc1cccs1)N[C@@H]1C(=O)N2C(C(=O)[O-])=C(C[n+]3ccccc3)CS[C@H]12` [cephaloridine], the MIC in [19] (setting [22]) and in [20] (setting [22]) was over 128 µg/mL throughout.
As to `O=C(N[C@H](CO)[C@H](O)c1ccc([N+](=O)[O-])cc1)C(Cl)Cl` [chloramphenicol], the MIC in series [19] and in series [20] was over 128 µg/mL each time.
As for `CC[C@H]1OC(=O)[C@H](C)[C@@H](O[C@H]2C[C@@](C)(OC)[C@@H](O)[C@H](C)O2)[C@H](C)[C@@H](O[C@@H]2O[C@H](C)C[C@H](N(C)C)[C@H]2O)[C@](C)(O)C[C@@H](C)C(=O)[C@H](C)[C@@H](O)[C@]1(C)O` [erythromycin], the MIC in series [19] and in [20] was over 128 µg/mL throughout.
Take `CC1(C)S[C@@H]2[C@H](NC(=O)Cc3ccccc3)C(=O)N2[C@H]1C(=O)O` [penicillin G]: the MIC in series [19] and in series [20] was over 128 µg/mL each time.
As to `CN[C@@H]1[C@H](O)[C@H](NC)[C@H]2O[C@@]3(O)C(=O)C[C@@H](C)O[C@H]3O[C@@H]2[C@H]1O` [spectinomycin], the MIC in series [19] (setting [22]) and in series [20] (setting [22]) was over 128 µg/mL in each case.
As to gentamicin, the M.I.C. entry in [19] (setting [23]) and in series [20] (setting [23]) was “higher than 128 microgram/ml” each time.

These data come from US5118705A, “Water soluble salts of purpuromycin and pharmaceutical formulations thereof” (Gruppo Lepetit S.p.A., priority 1990, dated 1992).
